Measured values from PMC8035174, “The Pseudomonas aeruginosa substrate-binding protein Ttg2D functions as a general glycerophospholipid transporter across the periplasm” (Communications Biology, 2021).
Values after ≈ are worked out from the molar mass of the structure shown.

Test system: T1, Pseudomonas aeruginosa PAO1
T1 construct: PAO1
Assay: microbe, parasite or virus in culture
Parameters: broth microdilution MIC in cation-adjusted Mueller-Hinton broth, visual growth or resazurin
Conditions: PAO1, 20 h, read-out: MIC PAO1
Description: Analysis of antimicrobial susceptibilities. […] The BMD method was performed on cation adjusted MH broth (CAMHB) as recommended 41, 42 . Bacteria were first grown overnight in CAMHB using CLSI-recommended incubation conditions and the antibiotics were serially diluted twofold across the 96 well plates. After that, 100 µl of a bacterial suspension diluted to 5x10^5 CFU/ml in CAMHB was added to the wells containing the antibiotic dilutions. The 96-well plates were incubated for 20 h at 37°C before developing by visual inspection or with the resazurin dye 43 . MIC was defined as the lowest concentration of the antibiotic (in μg/ml) that prevented visual growth. As the LESB58 isolate is considered a slower growing strain compared to laboratory strain PAO1 44, incubation for bacterial growth was extended to 48 h instead of 24 h for some protocols. […] For Etest a 0.5 McFarland suspension was used to create a confluent lawn of microbial growth in 150-mm Mueller-Hinton (MH) agar plates. The MIC values were determined according to the Etest reading guide after 18 h incubation at 37°C. MICs were determined as the concentration at which the zone of inhibition intersected the Etest strip.

`NCC[C@H](O)C(=O)N[C@@H]1C[C@H](N)[C@@H](O[C@H]2O[C@H](CN)[C@@H](O)[C@H](O)[C@H]2O)[C@H](O)[C@H]1O[C@H]1O[C@H](CO)[C@@H](O)[C@H](N)[C@H]1O` [Amikacin] gave an MIC of 2 µg/mL (≈ 3.42 µM).
With `CC(C)(O/N=C(\C(=O)N[C@@H]1C(=O)N2C(C(=O)[O-])=C(C[n+]3ccccc3)CS[C@H]12)c1csc(N)n1)C(=O)O` [Ceftazidime] the MIC was 1 µg/mL (≈ 1.83 µM).
Compound `O=C(N[C@H](CO)[C@H](O)c1ccc([N+](=O)[O-])cc1)C(Cl)Cl` [Chloramphenicol] has an MIC of over 256 µg/mL.
`C[C@@H](O)[C@H]1C(=O)N2C(C(=O)O)=C(SCCNC=N)C[C@H]12` [Imipenem] gave an MIC of 4 µg/mL (≈ 13.4 µM).
Work on `C[C@H]1COc2c(N3CCN(C)CC3)c(F)cc3c(=O)c(C(=O)O)cn1c23` [Levofloxacin] yielded an MIC of 4 µg/mL (≈ 11.1 µM).
`C[C@@H](O)[C@H]1C(=O)N2C(C(=O)O)=C(S[C@@H]3CN[C@H](C(=O)N(C)C)C3)[C@H](C)[C@H]12` [Meropenem] gave an MIC of 1 µg/mL (≈ 2.61 µM).
With `CN(C)c1ccc(O)c2c1C[C@H]1C[C@H]3[C@H](N(C)C)C(O)=C(C(N)=O)C(=O)[C@@]3(O)C(O)=C1C2=O` [Minocycline] the MIC was 32 µg/mL (≈ 69.9 µM).
`CCn1cc(C(=O)O)c(=O)c2cc(F)c(N3CCNCC3)cc21` [Norfloxacin] was tested, and the MIC was 4 µg/mL (≈ 12.5 µM).
Compound `CC1COc2c(N3CCN(C)CC3)c(F)cc3c(=O)c(C(=O)O)cn1c23` (stereo not shown) [Ofloxacin] has an MIC of 8 µg/mL (≈ 22.1 µM).
Work on `CCN1CCN(C(=O)N[C@@H](C(=O)N[C@@H]2C(=O)N3[C@@H]2SC(C)(C)[C@@H]3C(=O)O)c2ccccc2)C(=O)C1=O` [Piperacillin] yielded an MIC of 2 µg/mL (≈ 3.86 µM).
`CN[C@@H]1[C@H](O[C@H]2[C@H](O[C@H]3[C@H](O)[C@@H](O)[C@H](N=C(N)N)[C@@H](O)[C@@H]3N=C(N)N)O[C@@H](C)[C@]2(O)C=O)O[C@@H](CO)[C@H](O)[C@H]1O` [Streptomycin] showed an MIC of 8 µg/mL (≈ 13.8 µM).
`CC1(C)S[C@@H]2[C@H](NC(=O)[C@H](C(=O)O)c3ccsc3)C(=O)N2[C@H]1C(=O)O` [Ticarcillin] was tested, and the MIC was 16 µg/mL (≈ 41.6 µM).
`CN(C)c1cc(NC(=O)CNC(C)(C)C)c(O)c2c1C[C@H]1C[C@H]3[C@H](N(C)C)C(O)=C(C(N)=O)C(=O)[C@@]3(O)C(O)=C1C2=O` [Tigecycline] showed an MIC of 32 µg/mL (≈ 54.6 µM).
